Laboratory results as given in US8383683B2, “Pharmaceutical use of substituted amides” (High Point Pharmaceuticals, LLC, priority 2007, dated 2013).

Target: 11βHSD1 (Homo sapiens, UniProt P28845)
Test: 11βHSD1 enzyme assay (SPA, 3H-cortisone to 3H-cortisol)
Format: biochemical
Design: An extract of yeast transformed with h-11βHSD1 (Hutt et al., FEBS Lett., 441, 25 (1998)) was used as the source of enzyme; made in house
Details: extract of yeast transformed with h-11βHSD1; 120 nM 3H-cortisone, 4 mM β-NADPH, 60 min at 30° C.
Description: Pharmacological Methods 11βHSD1 Enzyme Assay Materials
^3H-cortisone and anti-rabbit Ig coated scintillation proximity assay (SPA) beads were purchased from Amersham Pharmacia Biotech, β-NADPH was from Sigma and rabbit anti-cortisol antibodies were from Fitzgerald. An extract of yeast transformed with h-11βHSD1 (Hutt et al., FEBS Lett., 441, 25 (1998)) was used as the source of enzyme. The test compounds were dissolved in DMSO (10 mM). All dilutions were performed in a buffer containing 50 mM TRIS-HCl (Sigma Chemical Co), 4 mM EDTA (Sigma Chemical Co), 0.1% BSA (Sigma Chemical Co), 0.01% Tween-20 (Sigma Chemical Co) and 0.005% bacitracin (Novo Nordisk NS), pH=7.4. Optiplate 96 wells plates were supplied by Packard. The amount of ^3H-cortisol bound to the SPA beads was measured on TopCount NXT, Packard.
h-11βHSD1, 120 nM ^3H-cortisone, 4 mM β-NADPH, antibody (1:200), serial dilutions of test compound and SPA particles (2 mg/well) were added to the wells. The reaction was initiated by mixing the different components and was allowed to proceed under shaking for 60 min at 30° C. The reaction was stopped be the addition of 10 fold excess of a stopping buffer containing 500 μM carbenoxolone and 1 μM cortisone. Data was analysed using GraphPad Prism software.

Chain of 11βHSD1 (P28845 whole entry): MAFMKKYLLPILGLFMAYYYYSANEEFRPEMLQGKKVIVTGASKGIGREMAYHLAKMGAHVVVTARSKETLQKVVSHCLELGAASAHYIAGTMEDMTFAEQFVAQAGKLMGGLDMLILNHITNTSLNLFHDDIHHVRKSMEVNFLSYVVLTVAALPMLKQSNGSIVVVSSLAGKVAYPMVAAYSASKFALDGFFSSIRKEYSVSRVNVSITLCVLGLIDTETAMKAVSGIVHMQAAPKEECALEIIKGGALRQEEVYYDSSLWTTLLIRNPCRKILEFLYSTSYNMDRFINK

Row | IC50 | SMILES
1 | 27 nM | O=C(CCCOc1ccc(Cl)cc1Cl)N[C@@]12C[C@@H]3C[C@@H](C[C@@](O)(C3)C1)C2 [Example 1-1, 4-(2,4-Dichloro-phenoxy)-N-((1R,3S,5R,7S)-3-hydroxy-adamantan-1-yl)-butyramide]
2 | 405 nM | O=C(CCCOc1ccc(Cl)cc1Cl)NC(c1ccccc1)C1CC1 (centres unmarked) [Example 1-3, N-(Cyclopropyl-phenyl-methyl)-4-(2,4-dichloro-phenoxy)-butyramide]
3 | 296 nM | O=C(CCCOc1ccc(Cl)cc1Cl)N1CCCCC1c1ccccc1Cl (centres unmarked) [Example 1-4, 1-[2-(2-Chloro-phenyl)-piperidin-1-yl]-4-(2,4-dichloro-phenoxy)-butan-1-one]
4 | 201 nM | O=C(CCCOc1ccc(Cl)cc1Cl)N1CCCCC1c1ccccc1 (centres unmarked) [Example 1-10, 4-(2,4-Dichloro-phenoxy)-1-(2-phenyl-piperidin-1-yl)-butan-1-one]
5 | 271 nM | CC1(C)[C@H]2CC[C@@H](CNC(=O)CCCOc3ccc(Cl)cc3Cl)[C@@H]1C2 [Example 1-11, 4-(2,4-Dichloro-phen-oxy)-N-((1S,2R,5S)-6,6-dimethyl-bicyclo[3.1.1]-hept-2-ylmethyl)-butyr-amide]
6 | 52 nM | O=C(CCCOc1ccc(Cl)cc1Cl)N1CC2CCC(CC2)C1 [Example 1-15, 1-(3-Aza-bicyclo[3.2.2]-non-3-yl)-4-(2,4-di-chloro-phenoxy)-butan-1-one]
7 | 7 nM | COC(=O)C1CC2CCC(C1)N2C(=O)CCCOc1ccc(Cl)cc1Cl (centres unmarked) [Example 1-17, 8-[4-(2,4-Dichloro-phenoxy)-butyryl]-8-aza-bicyclo[3.2.1]octane-3-carboxylic acid methyl ester]
8 | 209 nM | O=C(CCCOc1ccc(Cl)cc1Cl)N(C1CC1)C1C2CC3CC1CC(O)(C3)C2 (centres unmarked) [Example 1-18, N-Cyclopropyl-4-(2,4-dichloro-phenoxy)-N-(5-hydroxy-adamantan-2-yl)-butyramide]
9 | 24 nM | O=C(CCCOc1ccc(Cl)cc1Cl)N(C1CC1)C1C2CC3CC1CC(O)(C3)C2 (centres unmarked) [Example 1-19, N-Cyclopropyl-4-(2,4-dichloro-phenoxy)-N-(5-hydroxy-adamantan-2-yl)-butyramide]
10 | 13 nM | O=C(CCCOc1ccc(Cl)cc1Cl)NC12CC3CC(C1)CC(C(=O)O)(C3)C2 [Example 1-20, 3-[4-(2,4-Dichloro-phenoxy)-butyrylamino]-adamantane-1-carboxylic acid]
11 | 1 nM | O=C(CCCOc1ccc(Cl)cc1Cl)NC1C2CC3CC(C2)C(CO)C1C3 (centres unmarked) [Example 1-21, 4-(2,4-Dichloro-phenoxy)-N-(4-hydroxy-methyl-adamantan-2-yl)-butyramide]
12 | 6 nM | O=C(CCCOc1ccc(Cl)cc1Cl)N1CC2CC3CC1CC(O)(C3)C2 (centres unmarked) [Example 1-22, 4-(2,4-Dichloro-phenoxy)-1-(1-hydroxy-4-aza-tricyclo-[4.3.1.1{3,8}]undec-4-yl)-butan-1-one]
13 | 151 nM | O=C(CCCOc1ccc(Cl)cc1Cl)N1CC2CC(O)C1C2 (centres unmarked) [Example 1-23, 4-(2,4-Dichloro-phenoxy)-1-(6-hydroxy-2-aza-bicyclo[2.2.1]hept-2-yl)-butan-1-one]
14 | 20 nM | O=C(CCCOc1ccc(Cl)cc1Cl)N1CC2CC1CC2O (centres unmarked) [Example 1-24, 4-(2,4-Dichloro-phenoxy)-1-(5-hydroxy-2-aza-bicyclo[2.2.1]hept-2-yl)-butan-1-one]
15 | 185 nM | O=C(CCCOc1ccc(Cl)cc1Cl)N1CC2CC(O)CC1C2 (centres unmarked) [Example 1-25, 4-(2,4-Dichloro-phenoxy)-1-(3-hydroxy-6-aza-bicyclo[3.2.1]oct-6-yl)-butan-1-one]
16 | 21 nM | CN(C(=O)CCCOc1ccc(Cl)cc1Cl)C1CCC(O)CC1 (centres unmarked) [Example 1-26, 4-(2,4-Dichloro-phenoxy)-N-(4-hydroxy-cyclohexyl)-N-methyl-butyramide]
17 | 4 nM | O=C(CCCOc1ccc(Cl)cc1Cl)NC1C2CC3CC1CC(O)(C3)C2 (centres unmarked) [Example 1-27, 4-(2,4-Dichloro-phenoxy)-N-(5-hydroxy-adamantan-2-yl)-butyramide]
